Source: patent publication US11364225B2, “Pharmaceutical formulation for treating symptoms of migraine and cluster headaches, and method of using the same” (BN INTELLECTUAL PROPERTIES, INC., priority 2019, dated 2022)
Read-outs that look alike come from different tables or passages of the source.

How the values were obtained:
[1] = Treatment of migraine headache symptoms (pain phase) with an inhaled plume of particles from an active mesh nebulizer; type: in vivo, patient (adult)
Description: In a non-limiting example, an adult with a history of chronic migraine headaches was treated for migraine headache symptoms during the pain phase using an inhaled plume of particles from an active mesh nebulizer as described herein, and as described in U.S. patent application Ser. No. 16/836,485, titled “NEBULIZER FOR TIME-REGULATED DELIVERY”. The person was provided with an active mesh nebulizer containing a solution of sumatriptan succinate in water at 0.1996 weight % (wt %) [e.g., 4 mg sumatriptan succinate in 2 grams of water, such that (0.004 g sumatriptan succinate/2.004 g solution)*100=0.1996 wt % sumatriptan succinate] which produced a plume of particles where over 95% of the particles have individual particle diameters ranging from about 0.5 μm to about 3.0 μm. The active mesh nebulizer was configured to produce a plume of particles by nebulizing the sumatriptan succinate solution at a rate of 0.2 milliliters per minute (ml/min) for one minute, resulting in a patient dose for a first inhalation session (e.g., six 10-second inhaled plume pulses) of not more than 4 mg sumatriptan succinate.
The person had indicated in their medical history that they had regularly experienced migraine headache symptoms, at a frequency of about 3-4 episodes per week, over several months prior to the treatment.

[2] = cited from earlier work

SMILES	migraine headache symptoms, self-evaluated after treatment ([1]; one adult with chronic migraine, inhaled, 0.1996 wt % solution in water, six 10-second plume pulses, not more than 4 mg, evaluated after waiting 5 minutes)	remission after treatment ([1]; same patient, about 3-4 episodes per week before treatment)	relief time (patient relief) ([2]; intra-nasal delivery, according to theory and belief) [min]	relief time (patient relief) ([2]; sub-cutaneous delivery, after injection) [min]	relief time (symptom relief) ([2]; sub-lingual delivery, according to theory and belief) [min]
CNS(=O)(=O)Cc1ccc2[nH]cc(CCN(C)C)c2c1 [sumatriptan succinate]	completely abated	more than seven days	30 to 60	60 to 90	–
CN(C)CCc1c[nH]c2ccc(C[C@H]3COC(=O)N3)cc12 [zolmitriptan]	–	–	–	–	≤ 30
